According to ChEMBL document CHEMBL4177726, “Synthesis and anti-influenza virus evaluation of triterpene-sialic acid conjugates” (Bioorg Med Chem, 2018):

What was measured:
Influenza A virus [1] = assay: Antiviral activity against Influenza A virus A/PR/8/34(H1N1) infected in MDCK cells assessed as viral yield at 1 x 10^-5 M preincubated with virus for 1 hr followed by viral infection measured after 18 hrs by beta-galactosidase based fluorescence assay (reference value: 100%); assay type: functional, A/Puerto Rico/8/1934(H1N1)
Influenza A virus [2] = assay: Antiviral activity against Influenza A virus A/PR/8/34(H1N1) infected in MDCK cells assessed as reduction in viral yield at 1 x 10^-5 M preincubated with virus for 1 hr followed by viral infection measured after 18 hrs by beta-galactosidase based fluorescence assay; assay type: functional, organism-based; conditions: A/Puerto Rico/8/1934(H1N1)
[3] = Inhibition of Influenza A virus A/Duck/313/4/78(H5N3) sialidase at 3.33 x 10^-4M preincubated for 15 mins followed by MUNA substrate addition measured after 15 mins by fluorescence assay relative to control
[4] = biological target: Neuraminidase (Influenza A virus (A/Puerto Rico/8/1934(H1N1))) (UniProt P03468); assay: Inhibition of Influenza A virus A/PR/8/34(H1N1) sialidase at 3.33 x 10^-4M preincubated for 15 mins followed by MUNA substrate addition measured after 15 mins by fluorescence assay relative to control
MDCK = assay: Cytotoxicity against MDCK cells assessed as reduction in cell viability at 1 x 10^-5 M after 24 hrs by CCK8 assay; assay type: cell-based, Canis lupus familiaris; conditions: dog, 10 µM
[5] = biological target: Neuraminidase (Influenza A virus (A/Memphis/1/1971(H3N2))) (UniProt P03471); assay: Inhibition of Influenza A virus A/Memphis/1/71(H3N2) sialidase at 3.33 x 10^-4M preincubated for 15 mins followed by MUNA substrate addition measured after 15 mins by fluorescence assay relative to control
Sequence of Neuraminidase (Influenza A virus (A/Memphis/1/1971(H3N2))) (P03471 whole entry): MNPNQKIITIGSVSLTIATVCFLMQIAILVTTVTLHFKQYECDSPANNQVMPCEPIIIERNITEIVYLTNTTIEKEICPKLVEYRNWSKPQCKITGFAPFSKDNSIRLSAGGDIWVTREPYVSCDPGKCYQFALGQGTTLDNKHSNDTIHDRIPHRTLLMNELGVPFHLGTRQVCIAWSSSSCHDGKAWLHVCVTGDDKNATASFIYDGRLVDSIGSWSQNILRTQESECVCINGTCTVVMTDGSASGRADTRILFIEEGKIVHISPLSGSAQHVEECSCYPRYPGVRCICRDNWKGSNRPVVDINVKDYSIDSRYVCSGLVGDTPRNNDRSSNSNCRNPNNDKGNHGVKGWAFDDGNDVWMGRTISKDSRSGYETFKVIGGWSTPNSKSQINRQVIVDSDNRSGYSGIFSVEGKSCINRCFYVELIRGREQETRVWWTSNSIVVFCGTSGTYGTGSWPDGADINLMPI

Sequence of Neuraminidase (Influenza A virus (A/Puerto Rico/8/1934(H1N1))) (P03468 whole entry): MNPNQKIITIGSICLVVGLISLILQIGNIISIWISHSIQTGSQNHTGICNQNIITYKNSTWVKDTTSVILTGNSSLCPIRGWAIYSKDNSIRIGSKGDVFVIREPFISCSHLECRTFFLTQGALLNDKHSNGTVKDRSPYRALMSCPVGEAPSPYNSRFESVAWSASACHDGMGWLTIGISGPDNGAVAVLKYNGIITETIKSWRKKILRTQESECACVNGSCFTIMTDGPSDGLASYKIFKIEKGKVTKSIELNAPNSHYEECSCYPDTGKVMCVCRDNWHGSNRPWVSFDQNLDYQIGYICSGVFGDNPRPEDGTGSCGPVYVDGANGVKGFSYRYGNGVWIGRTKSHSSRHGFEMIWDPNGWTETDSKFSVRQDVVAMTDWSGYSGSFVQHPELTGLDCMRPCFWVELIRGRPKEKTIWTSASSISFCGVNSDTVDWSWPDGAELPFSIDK

| Structure (SMILES) | Activity (Influenza A virus [1]) [%] | Activity (Influenza A virus [2]) | inhibition [3] [%] | inhibition [4] [%] | Activity (MDCK) | inhibition [5] [%] |
| --- | --- | --- | --- | --- | --- | --- |
| COC(=O)[C@]12CCC(C)(C)C[C@H]1C1=CC[C@@H]3[C@@]4(C)CC[C@H](O[C@@]5(C(=O)O)C[C@H](O)[C@@H](NC(C)=O)[C@H]([C@H](O)[C@H](O)CO)O5)C(C)(C)[C@@H]4CC[C@@]3(C)[C@]1(C)CC2 | 46.7 | Dose-dependent effect | 70.7 | 89.9 | Non-Toxic | 64.9 |
| CC(=O)N[C@H]1[C@H]([C@H](O)[C@H](O)CO)O[C@](O[C@H]2CC[C@]3(C)[C@H]4C(=O)C=C5[C@@H]6C[C@@](C)(CO)CC[C@]6(C)CC[C@@]5(C)[C@]4(C)CC[C@H]3C2(C)C)(C(=O)O)C[C@@H]1O |  |  | 43.8 | 35.8 |  | 40.3 |
| CC(=O)N[C@H]1[C@H]([C@H](O)[C@H](O)CO)O[C@](O[C@H]2CC[C@]3(C)[C@H]4CC=C5[C@@H]6CC(C)(C)CC[C@]6(C(=O)O)CC[C@@]5(C)[C@]4(C)CC[C@H]3C2(C)C)(C(=O)O)C[C@@H]1O |  |  | 34.6 | 33.2 |  | 26.5 |
| CC(=O)N[C@H]1[C@H]([C@H](O)[C@H](O)CO)O[C@](O[C@H]2CC[C@]3(C)[C@H]4C(=O)C=C5[C@@H]6C[C@@](C)(C(=O)O)CC[C@]6(C)CC[C@@]5(C)[C@]4(C)CC[C@H]3C2(C)C)(C(=O)O)C[C@@H]1O |  |  | 25.8 | 21.1 |  | 23.4 |
| COC(=O)[C@@]1(C)CC[C@]2(C)CC[C@]3(C)C(=CC(=O)[C@@H]4[C@@]5(C)CC[C@H](O[C@]6(C(=O)O)C[C@H](O)[C@@H](NC(C)=O)[C@H]([C@H](O)[C@H](O)CO)O6)C(C)(C)[C@@H]5CC[C@]43C)[C@@H]2C1 |  |  | 27.5 | 52.2 |  | 39.9 |
| COC(=O)[C@]12CCC(C)(C)C[C@H]1C1=CC[C@@H]3[C@@]4(C)CC[C@H](O[C@]5(C(=O)O)C[C@H](O)[C@@H](NC(C)=O)[C@H]([C@H](O)[C@H](O)CO)O5)C(C)(C)[C@@H]4CC[C@@]3(C)[C@]1(C)CC2 | 39.4 |  | 65.7 | 74.9 | Non-Toxic | 70.7 |
| CC(=O)N[C@H]1[C@H]([C@H](O)[C@H](O)CO)O[C@@](O[C@H]2CC[C@]3(C)[C@H]4C(=O)C=C5[C@@H]6C[C@@](C)(CO)CC[C@]6(C)CC[C@@]5(C)[C@]4(C)CC[C@H]3C2(C)C)(C(=O)O)C[C@@H]1O |  |  | 25.3 | 50.3 |  | 30.3 |
| CC(=O)N[C@H]1[C@H]([C@H](O)[C@H](O)CO)O[C@@](O[C@H]2CC[C@]3(C)[C@H]4C(=O)C=C5[C@@H]6C[C@@](C)(C(=O)O)CC[C@]6(C)CC[C@@]5(C)[C@]4(C)CC[C@H]3C2(C)C)(C(=O)O)C[C@@H]1O |  |  | 16.4 | 50.1 |  | 27.4 |
| COC(=O)[C@@]1(C)CC[C@]2(C)CC[C@]3(C)C(=CC(=O)[C@@H]4[C@@]5(C)CC[C@H](O[C@@]6(C(=O)O)C[C@H](O)[C@@H](NC(C)=O)[C@H]([C@H](O)[C@H](O)CO)O6)C(C)(C)[C@@H]5CC[C@]43C)[C@@H]2C1 |  |  | 46.2 | 35.4 |  | 44.8 |
| CC(=O)N[C@H]1[C@H]([C@H](O)[C@H](O)CO)O[C@@](O[C@H]2CC[C@]3(C)[C@H]4CC=C5[C@@H]6C[C@@](C)(CO)CC[C@]6(C)CC[C@@]5(C)[C@]4(C)CC[C@H]3C2(C)C)(C(=O)O)C[C@@H]1O | 88 |  | 57.6 | 71 | Non-Toxic | 45 |
| CC(=O)N[C@H]1[C@H]([C@H](O)[C@H](O)CO)O[C@](O[C@H]2CC[C@]3(C)[C@H]4CC=C5[C@@H]6C[C@@](C)(CO)CC[C@]6(C)CC[C@@]5(C)[C@]4(C)CC[C@H]3C2(C)C)(C(=O)O)C[C@@H]1O | 72.6 | Dose-dependent effect | 55.7 | 76.7 | Non-Toxic | 68.7 |
